Where “and” joins values, the source holds several entries; their conditions need not be identical. Identical values can stand only once.
Legend:
[1] = target: MDM2/P53 (Homo sapiens, UniProt Q00987); assay: biochemical
[2] = target: APC2/APC11 (Homo sapiens, UniProt Q9NYG5+Q9UJX6); assay: biochemical
APC2/APC11, sequence (Q9UJX6 whole entry): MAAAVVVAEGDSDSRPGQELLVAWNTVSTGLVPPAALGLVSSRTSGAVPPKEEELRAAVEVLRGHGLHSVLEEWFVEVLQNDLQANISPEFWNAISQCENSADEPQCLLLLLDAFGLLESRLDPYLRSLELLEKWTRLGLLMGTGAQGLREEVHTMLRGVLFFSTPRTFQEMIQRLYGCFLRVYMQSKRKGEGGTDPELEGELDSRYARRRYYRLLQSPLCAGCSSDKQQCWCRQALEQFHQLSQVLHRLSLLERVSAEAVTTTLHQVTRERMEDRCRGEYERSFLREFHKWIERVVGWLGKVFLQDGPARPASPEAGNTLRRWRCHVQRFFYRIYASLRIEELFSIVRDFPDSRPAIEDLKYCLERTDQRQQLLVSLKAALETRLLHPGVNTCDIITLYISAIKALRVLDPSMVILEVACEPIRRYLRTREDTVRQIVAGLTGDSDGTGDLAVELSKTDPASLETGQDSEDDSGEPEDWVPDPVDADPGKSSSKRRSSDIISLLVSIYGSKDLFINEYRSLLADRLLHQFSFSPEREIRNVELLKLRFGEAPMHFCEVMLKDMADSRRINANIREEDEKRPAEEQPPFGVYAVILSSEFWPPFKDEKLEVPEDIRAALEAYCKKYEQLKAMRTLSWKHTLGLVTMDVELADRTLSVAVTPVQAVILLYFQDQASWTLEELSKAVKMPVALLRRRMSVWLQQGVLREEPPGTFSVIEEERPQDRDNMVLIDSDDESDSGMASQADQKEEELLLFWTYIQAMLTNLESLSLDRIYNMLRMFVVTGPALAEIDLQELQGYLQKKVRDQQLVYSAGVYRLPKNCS
APC2/APC11, sequence (Q9NYG5 whole entry): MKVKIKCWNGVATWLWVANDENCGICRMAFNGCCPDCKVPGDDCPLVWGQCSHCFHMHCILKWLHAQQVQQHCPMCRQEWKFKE

MDM2/P53, sequence (Q00987 whole entry): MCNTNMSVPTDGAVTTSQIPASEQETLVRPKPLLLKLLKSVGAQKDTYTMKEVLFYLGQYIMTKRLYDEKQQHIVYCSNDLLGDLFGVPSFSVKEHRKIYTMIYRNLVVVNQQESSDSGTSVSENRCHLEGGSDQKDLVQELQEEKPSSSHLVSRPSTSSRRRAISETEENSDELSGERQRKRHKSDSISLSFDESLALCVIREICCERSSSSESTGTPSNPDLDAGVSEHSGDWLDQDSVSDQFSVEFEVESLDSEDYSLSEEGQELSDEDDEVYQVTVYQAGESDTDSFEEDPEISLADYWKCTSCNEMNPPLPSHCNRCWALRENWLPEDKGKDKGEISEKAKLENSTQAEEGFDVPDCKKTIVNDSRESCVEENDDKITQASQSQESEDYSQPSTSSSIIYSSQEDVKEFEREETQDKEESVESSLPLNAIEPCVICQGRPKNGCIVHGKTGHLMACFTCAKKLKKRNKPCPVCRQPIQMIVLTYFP

Structure (SMILES)	IC50 [1]	IC50 [2]
O=C1/C(=C/c2ccc(-c3ccc([N+](=O)[O-])cc3)o2)SC(=S)N1Cc1ccccc1 [Compound 199, (5Z)-3-benzyl-5-{[5-(4-nitrophenyl)-2-furyl]methylene}-2-thioxo-1,3-thiazolidin-4-one]		0.1 µM
O=C1/C(=C\c2ccc(-c3ccc([N+](=O)[O-])cc3)o2)SC(=S)N1CCc1ccccc1 [Compound 75, (5E)-5-{[5-(4-nitrophenyl)-2-furyl]methylene}-3-(2-phenylethyl)-2-thioxo-1,3-thiazolidin-4-one]	13.6 µM	
O=C1/C(=C\c2ccc(-c3cccc([N+](=O)[O-])c3)o2)SC(=S)N1Cc1ccccc1 [Compound 98, (5E)-3-benzyl-5-{[5-(3-nitrophenyl)-2-furyl]methylene}-2-thioxo-1,3-thiazolidin-4-one]	11.6 µM	
C=CCN1C(=O)/C(=C\c2ccc(-c3cccc(C(F)(F)F)c3)o2)SC1=S [Compound 63, (5E)-3-allyl-2-thioxo-5-({5-[3-(trifluoromethyl)phenyl]-2-furyl}methylene)-1,3-thiazolidin-4-one]		0.2 µM
O=C1/C(=C/c2ccc(-c3ccc(Br)cc3)o2)SC(=S)N1c1ccccc1 [Compound 27, (5Z)-5-{[5-(4-bromophenyl)-2-furyl]methylene}-3-phenyl-2-thioxo-1,3-thiazolidin-4-one]	10.7 µM	
O=C1/C(=C/c2ccc(-c3cccc([N+](=O)[O-])c3)o2)SC(=S)N1CC1CCCO1 (stereo not drawn) [Compound 254, (5Z)-5-{[5-(3-nitrophenyl)-2-furyl]methylene}-3-(tetrahydrofuran-2-ylmethyl)-2-thioxo-1,3-thiazolidin-4-one]	24.8 µM	
O=C(O)CN1C(=O)/C(=C\c2ccc(-c3cccc(C(F)(F)F)c3)o2)SC1=S [Compound 146, [(5E)-4-oxo-2-thioxo-5-({5-[3-(trifluoromethyl)phenyl]-2-furyl]methylene)-1,3-thiazolidin-3-yl]acetic acid]		10 µM
CN1C(=O)/C(=C\c2ccc(-c3cccc([N+](=O)[O-])c3)o2)SC1=S [Compound 183, (5E)-3-methyl-5-{[5-(3-nitrophenyl)-2-furyl]methylene}-2-thioxo-1,3-thiazolidin-4-one]		0.1 µM
CCOc1ccc(N2C(=O)/C(=C\c3ccc(-c4ccc(Br)cc4)o3)SC2=S)cc1 [Compound 69, (5E)-5-{[5-(4-bromophenyl)-2-furyl]mthylene}-3-(4-ethoxyphenyl)-2-thioxo-1,3-thiazolidin-4-one]	14.2 µM	
O=C(O)CN1C(=O)/C(=C\c2ccc(-c3ccc(Cl)cc3)o2)SC1=S [Compound 145, ((5E)-5-{[5-(4-chlorophenyl)-2-furyl]methylene}-4-oxo-2-thioxo-1,3-thiazolidin-3-yl)acetic acid]		10 µM
O=C1C(Cc2ccc(-c3ccccc3Cl)o2)SC(=S)N1Cc1ccc2c(c1)OCO2 (stereo not drawn) [Compound 305, 3-(1,3-benzodioxol-5-ylmethyl)-5-{[5-(2-chlorophenyl)-2-furyl]methyl}-2-thioxo-1,3-thiazolidin-4-one]	10.8 µM	
O=C1NC(=S)S/C1=C/c1ccc(-c2ccc(Cl)cc2)o1 [Compound 238, (5E)-5-{[5-(4-chlorophenyl)-2-furyl]methylene}-2-thioxo-1,3-thiazolidin-4-one]		5 µM
O=C(O)c1cccc(-c2ccc(/C=C3\SC(=S)N(C4CCCCC4)C3=O)o2)c1 [Compound 176, 3-{5-[(Z)-(3-cyclohexyl-4-oxo-2-thioxo-1,3-thiazolidin-5-ylidene)methyl]-2-furyl}benzoic acid]		0.4 µM and 0.7 µM
CN1C(=O)/C(=C/c2ccc(-c3cccc4ccccc34)o2)SC1=S [Compound 33, (5Z)-3-methyl-5-{[5-(1-naphtthyl)-2-furyl]methylene}-2-thioxo-1,3-thiazolidin-4-one]	6.1 µM	
O=C1NC(=S)S/C1=C/c1ccc(-c2cc(Cl)ccc2Cl)o1 [Compound 270, (5E)-5-{[5-(2,5-dichlorophenyl)-2-furyl]methylene}-2-thioxo-1,3-thiazolidin-4-one]		3 µM

More lines, now with the values ahead:

IC50 [1]	IC50 [2]	Structure (SMILES)
5.64 µM	2.06 µM	O=C(O)CCN1C(=O)/C(=C/c2ccc(-c3ccc(Br)cc3)o2)SC1=S [Compound 25, 3-((5Z)-5-{[5-(4-bromophenyl)-2-furyl]methylene}-4-oxo-2-thioxo-1,3-thiazolidin-3-yl)propanoic acid]
0.81 µM		O=C(O)CCN1C(=O)/C(=C/c2ccc(-c3ccc(Cl)cc3Cl)o2)SC1=S [Compound 77, 3-((5Z)-5-{[5-(2,4-dichlorophenyl)-2-furyl]methylene}-4-oxo-2-thioxo-1,3-thiazolidin-3-yl)propanoic acid]
1.21 µM	1.44 µM	CN1C(=O)/C(=C\c2ccc(-c3ccc(Cl)cc3)o2)SC1=S [Compound 29, (5E)-5-{[5-(4-chlorophenyl)-2-furyl]methylene}-3-methyl-2-thioxo-1,3-thiazolidin-4-one]
2.32 µM	5.49 µM	O=C1/C(=C/c2ccc(-c3cccc4ccccc34)o2)SC(=S)N1Cc1ccccc1 [Compound 30, (5Z)-3-benzyl-5-{[5-(1-nephthyl)-2-furyl]methylene}-2-thioxo-1,3-thiazolidin-4-one]
0.53 µM		O=C(O)CCN1C(=O)/C(=C\c2ccc(-c3ccc(Cl)c(Cl)c3)o2)SC1=S [Compound 256, 3-((5E)-5-{[5-(3,4-dichlorophenyl)-2-furyl]methylene}-4-oxo-2-thioxo-1,3-thiazolidin-3-yl)propanoic acid]
0.8 µM		O=C1/C(=C/c2ccc(-c3ccccc3)o2)SC(=S)N1c1ccccc1 [Compound 28, (5Z)-3-phenyl-5-[(5-phenyl-2-furyl)methylene]-2-thioxo-1,3-thiazolidin-4-one]
0.21 µM		O=C1/C(=C\c2ccc(-c3ccccc3Cl)o2)SC(=S)N1C1CCS(=O)(=O)C1 (stereo not drawn) [Compound 99, (5E)-5-{[5-(2-chlorophenyl)-2-furyl]methylene}-3-(1,1-dioxidotetrahydro-3-thienyl)-2-thioxo-1,3-thiazolidin-4-one]
4.6 µM		C[C@H](NC(=O)CN1C(=O)/C(=C/c2ccc(-c3ccccc3Cl)o2)SC1=S)C(=O)OC(C)(C)C [Compound 302, tert-butyl N-[((5Z)-5-{[5-(2-chlorophenyl)-2-furyl]methylene}-4-oxo-2-thioxo-1,3-thiazolidin-3-yl)acetyl]alaninate]
0.45 µM		O=C1/C(=C/c2ccc(-c3ccccc3Cl)o2)SC(=S)N1Cc1ccc2c(c1)OCO2 [Compound 299, (5Z)-3-(1,3-benzodioxol-5-ylmethyl)-5-{[5-(2-chlorophenyl)-2-furyl]methylene}-2-thioxo-1,3-thiazolidin-4-one]
3.87 µM		NS(=O)(=O)c1ccc(-c2ccc(/C=C3\SC(=S)N(CCc4ccccc4)C3=O)o2)cc1 [Compound 103, 4-(5-{(Z)-[4-oxo-3-(2-phenylethyl)-2-thioxo-1,3-thiazolidin-5-ylidene]methyl}-2-furyl)benzenesulfonamide]
5.52 µM		O=C1/C(=C\c2ccc(-c3ccc(Cl)cc3)o2)SC(=S)N1C1CCS(=O)(=O)C1 (stereo not drawn) [Compound 40, (5E)-5-{[5-(4-chlorophenyl)-2-furyl]methylene}-3-(1,1-dioxidotetrahydro-3-thienyl)-2-thioxo-1,3-thiazolidin-4-one]
5.21 µM		O=C1/C(=C/c2ccc(-c3ccccc3Cl)o2)SC(=S)N1CCc1ccccn1 [Compound 278, (5Z)-5-{[5-(2-chlorophenyl)-2-furyl]methylene}-3-(2-pyridin-2-ylethyl)-2-thioxo-1,3-thiazolidin-4-one]

Source: patent US20060276520A1 (priority 2002, published 2006)
